Experimental data reported in ChEMBL document CHEMBL6121056, “Aculeapyridones A-Q, Pyranopyridone Alkaloids with Protective Effects against Acetaminophen-Induced Acute Liver Injury Discovered from a Coculture of Aspergillus aculeatinus WHUF0198 and a Penicillium sp” (2025).

Key:
Type in all cases: functional, Mus musculus
[1] = system: AML12; assay: Protection against acetaminophen-induced acute liver injury in AML12 cells at 5 uM incubated for 12 hrs by MTT assay relative to control
[2] = system: AML12; assay: Protection against acetaminophen-induced acute liver injury in AML12 cells at 10 uM incubated for 12 hrs by MTT assay relative to control
[3] = system: AML12; assay: Cytoprotective activity against acetaminophen-induced acute liver injury in AML12 cells assessed as reduction in ALT level at 5 uM measured after 12 hrs relative to control; parameters: scale not given: the % may be the effect or the level left

## CC[C@@H](C)/C=C/C=C/C=C(\C)[C@@H]1Oc2c(-c3ccc(O)cc3)c[nH]c(=O)c2C(=O)[C@H]1C
[1]
  Activity: -10%
[2]
  Activity: -50%

## CC[C@H](/C=C/C=C/C=C(\C)[C@@H]1Oc2ccn(OC)c(=O)c2[C@@H](O)[C@H]1C)C(=O)O
[1]
  Activity: 74%
[3]
  Activity: 52%
[2]
  Activity: -14%

## CC[C@H](/C=C/C=C/C=C(\C)[C@@H]1Oc2cc[nH]c(=O)c2[C@@H](O)[C@H]1C)C(=O)O
[1]
  Activity: 7%
[3]
  Activity: 118%
[2]
  Activity: 56%

## CC(=O)N[C@@H](CS)C(=O)O [ACETYLCYSTEINE]
[1]
  Activity: 150%
[3]
  Activity: 45%
[2]
  Activity: 165%

## CC[C@H](/C=C/C=C/C=C(\C)[C@@H]1Oc2ccn(OC)c(=O)c2[C@@H](O)[C@H]1C)CO
[1]
  Activity: 61%
[3]
  Activity: 71%
[2]
  Activity: 64%

## C\C(=C/C=C/C=C/C(C)CC(=O)O)[C@@H]1Oc2cc[nH]c(=O)c2[C@@H](O)C1C (stereo partly specified)
[1]
  Activity: 66%
[3]
  Activity: 74%
[2]
  Activity: 26%

## CC[C@H](/C=C/C=C/C=C(\C)[C@@H]1Oc2cc[nH]c(=O)c2[C@@H](OC)[C@H]1C)CO
[1]
  Activity: 125%
[3]
  Activity: 82%
[2]
  Activity: 53%

## CO[C@@H]1c2c(cc[nH]c2=O)O[C@@H](/C(C)=C/C=C/C=C/[C@H](CO)CCO)[C@@H]1C
[1]
  Activity: 20%
[3]
  Activity: 99%
[2]
  Activity: 59%

## CC[C@H](/C=C/C=C/C=C(\C)[C@@H]1Oc2cc[nH]c(=O)c2[C@@H](O)[C@H]1C)CO
[1]
  Activity: 17%
[3]
  Activity: 97%
[2]
  Activity: 100%

## CC[C@@H](/C=C/C=C/C=C(\C)[C@@H]1Oc2cc[nH]c(=O)c2[C@@H](OC)[C@H]1C)C(=O)O
[1]
  Activity: 164%
[3]
  Activity: 96%
[2]
  Activity: -43%

## COn1ccc2c(c1=O)[C@@H](O)[C@@H](C)[C@H](/C(C)=C/C=C/C=C/[C@H](C)CC(=O)O)O2
[1]
  Activity: 132%
[3]
  Activity: 115%
[2]
  Activity: 50%

## CC[C@@H](C)/C=C/C=C/C=C(\C)[C@@H]1Oc2cc[nH]c(=O)c2[C@@H](OC)[C@H]1C
[1]
  Activity: 30%
[3]
  Activity: 54%
[2]
  Activity: 192%

## CC[C@H](/C=C/C=C/C=C(\C)[C@@H]1Oc2cc[nH]c(=O)c2[C@@H](OC)[C@H]1C)COC=O
[1]
  Activity: 15%
[2]
  Activity: -32%

## CO[C@@H]1c2c(cc[nH]c2=O)O[C@@H](/C(C)=C/C=C/C=C/[C@H](C)CC(=O)O)[C@@H]1C
[1]
  Activity: 120%
[3]
  Activity: 86%
[2]
  Activity: 18%

## CC[C@@H](C)/C=C/C=C/C=C(\C)[C@@H]1Oc2cc[nH]c(=O)c2[C@@H](O)[C@H]1C
[1]
  Activity: 94%
[3]
  Activity: 29%
[2]
  Activity: -6.5%

## CC[C@H](/C=C/C=C/C=C(\C)[C@@H]1Oc2ccn(OC)c(=O)c2[C@@H](O)[C@H]1C)COC=O
[1]
  Activity: 144%
[3]
  Activity: 79%
[2]
  Activity: 21%
